Laboratory results taken from PMC12472621, “Excavating Precursors from Herb Pairs Polygala tenuifolia and Acori tatarinowii: Synthesis and Anticonvulsant Activity Evaluation of 3,4,5-Trimethoxycinnamic Acid (TMCA) Piperazine Amide Derivatives” (Pharmaceuticals, 2025).
Like-named read-outs stand apart in the source and are kept apart here.

Tested on: maximal electroshock (MES) induced seizures
Assay: Maximal electroshock (MES) test
Type: in vivo, mice
Conditions: 100 mg/kg i.p., mice; for responders at 100 mg/kg: Mus musculus, ip
Excerpt: Male Kunming mice (23–28 g) were maintained under controlled conditions with ad libitum access to standard pellet diet and water. Test compounds were formulated immediately prior to administration in normal saline containing 0.5% Tween-80. Our experiment was authorized by the Institutional Animal Care and Use Committee of Shaanxi University of Chinese Medicine (animal ethics certificate number: SUCMDL20210309027).
The MES test carried out following the method of Swinyard. A 60 Hz current (50 mA; 0.25 s duration) was delivered via corneal electrodes using a YSD-4G electro convulsion meter (Zhenghua Instruments, Huaibei, China, SN: ZH0056232). […] Test compounds were suspended in an identical vehicle. Protection was defined as abolition of tonic hindlimb extension.

[1] = 0.5 h, read-out: MES model, protected mice/total mice, 0.5 h (converted)
[2] = 1 h, read-out: MES model, protected mice/total mice, 1 h (converted)
[3] = 2 h, read-out: MES model, protected mice/total mice, 2 h (converted)
[4] = 3 h, read-out: MES model, protected mice/total mice, 3 h (converted)

Row | Compound | responders at 100 mg/kg [1] [%] | responders at 100 mg/kg [2] [%] | responders at 100 mg/kg [3] [%] | responders at 100 mg/kg [4] [%] | MES model, protected mice/total mice, 0.5 h (0.5 h) | MES model, protected mice/total mice, 1 h (1 h) | MES model, protected mice/total mice, 2 h (2 h) | MES model, protected mice/total mice, 3 h (3 h)
1 | COc1cc(/C=C/C(=O)N2CCN(C(=O)CCC(=O)O[C@H]3C[C@H]4CC[C@]3(C)C4(C)C)CC2)cc(OC)c1OC [B7, (1R,2S,4R)-1,7,7-trimethylbicyclo [2.2.1]heptan-2-yl 4-oxo-4-(4-((E)-3-(3,4,5-trimethoxyphenyl)acryloyl)piperazin-1-yl)butanoate] | 75 | 50 | 25 | 0 |  |  |  | 
2 | COc1cc(/C=C/C(=O)N2CCN(CCCC(=O)N3CCC(c4noc5cc(F)ccc45)CC3)CC2)cc(OC)c1OC [A17, (E)-1-(4-(6-fluorobenzo[d]isoxazol-3-yl)piperidin-1-yl)-4-(4-(3-(3,4,5-trimethoxyphenyl)acryloyl)piperazin-1-yl)butan-1-one] | 50 | 50 | 25 | 0 |  |  |  | 
3 | COc1cc(/C=C/C(=O)N2CCN(CCCC(=O)N3CCN(C(c4ccccc4)c4ccccc4)CC3)CC2)cc(OC)c1OC [A8, (E)-1-(4-benzhydrylpiperazin-1-yl)-4-(4-(3-(3,4,5-trimethoxyphenyl)acryloyl)piperazin-1-yl)butan-1-one] | 75 | 50 | 25 | 0 |  |  |  | 
4 | COc1cc(/C=C/C(=O)N2CCN(CCCC(=O)N3CCN(c4nsc5ccccc45)CC3)CC2)cc(OC)c1OC [A10, (E)-1-(4-(benzo[d]isothiazol-3-yl)piperazin-1-yl)-4-(4-(3-(3,4,5-trimethoxyphenyl)acryloyl)piperazin-1-yl)butan-1-one] | 75 | 25 | 25 | 0 |  |  |  | 
5 | COc1cc(/C=C/C(=O)N2CCN(C(=O)CCC(=O)N3CCC(c4noc5cc(F)ccc45)CC3)CC2)cc(OC)c1OC [B17, (E)-1-(4-(6-fluorobenzo[d]isoxazol-3-yl)piperidin-1-yl)-4-(4-(3-(3,4,5-trimethoxyphenyl)acryloyl)piperazin-1-yl)butane-1,4-dione] | 50 | 50 | 25 | 0 |  |  |  | 
6 | C=CCc1ccc(OC(=O)CCCN2CCN(C(=O)/C=C/c3cc(OC)c(OC)c(OC)c3)CC2)c(OC)c1 [A2, 4-allyl-2-methoxyphenyl (E)-4-(4-(3-(3,4,5-trimethoxyphenyl)acryloyl)piperazin-1-yl)butanoate] | 50 | 50 | 25 | 0 |  |  |  | 
7 | (E)-3-(2,4,5-trimethoxyphenyl)allyl 4-oxo-4-(4-((E)-3-(3,4,5-trimethoxyphenyl)acryloyl)piperazin-1-yl)butanoate [B5] |  |  |  |  | 3/4 | 3/4 | 2/4 | 0/4
8 | COc1ccccc1N1CCN(C(=O)CCCN2CCN(C(=O)/C=C/c3cc(OC)c(OC)c(OC)c3)CC2)CC1 [A15, (E)-1-(4-(2-methoxyphenyl)piperazin-1-yl)-4-(4-(3-(3,4,5-trimethoxyphenyl)acryloyl)piperazin-1-yl)butan-1-one] | 75 | 75 | 25 | 0 |  |  |  | 
9 | COc1cc(/C=C/C(=O)N2CCN(CCCC(=O)O[C@H]3C[C@H]4CC[C@]3(C)C4(C)C)CC2)cc(OC)c1OC (relative stereo) [A7, rel-(1R,2S,4R)-1,7,7-trimethylbicyclo [2.2.1]heptan-2-yl 4-(4-((E)-3-(3,4,5-trimethoxyphenyl)acryloyl)piperazin-1-yl)butanoate] | 75 | 50 | 25 | 0 |  |  |  | 
10 | COc1cc(/C=C/C(=O)N2CCN(C(=O)CCC(=O)N3CCN(c4ncccn4)CC3)CC2)cc(OC)c1OC [B16, (E)-1-(4-(pyrimidin-2-yl)piperazin-1-yl)-4-(4-(3-(3,4,5-trimethoxyphenyl)acryloyl)piperazin-1-yl)butane-1,4-dione] | 75 | 50 | 50 | 0 |  |  |  | 
11 | COc1cc(OC)c(OC)cc1/C=C/COC(=O)CCCN1CCN(C(=O)/C=C/c2cc(OC)c(OC)c(OC)c2)CC1 [A5, (E)-3-(2,4,5-trimethoxyphenyl)allyl 4-(4-((E)-3-(3,4,5-trimethoxyphenyl)acryloyl)piperazin-1-yl)butanoate] | 75 | 75 | 50 | 0 |  |  |  | 
12 | COc1cc(/C=C/C(=O)N2CCN(C(=O)CCC(=O)N3CCN(c4ccccc4)CC3)CC2)cc(OC)c1OC [B11, (E)-1-(4-phenylpiperazin-1-yl)-4-(4-(3-(3,4,5-trimethoxyphenyl)acryloyl)piperazin-1-yl)butane-1,4-dione] | 50 | 50 | 25 | 0 |  |  |  | 
13 | (E)-3-(2,4,5-trimethoxyphenyl)allyl 4-oxo-4-(4-((E)-3-(3,4,5-trimethoxyphenyl)acryloyl)piperazin-1-yl)butanoate [B6] |  |  |  |  | 2/4 | 1/4 | 1/4 | 0/4
14 | C=CCc1ccccc1OC(=O)CCC(=O)N1CCN(C(=O)/C=C/c2cc(OC)c(OC)c(OC)c2)CC1 [B4, 2-allylphenyl (E)-4-oxo-4-(4-(3-(3,4,5-trimethoxyphenyl)acryloyl)piperazin-1-yl)butanoate] | 75 | 50 | 50 | 0 |  |  |  | 
15 | C=CCc1ccc(OC(=O)CCC(=O)N2CCN(C(=O)/C=C/c3cc(OC)c(OC)c(OC)c3)CC2)c(OC)c1 [B2, 4-allyl-2-methoxyphenyl (E)-4-oxo-4-(4-(3-(3,4,5-trimethoxyphenyl)acryloyl)piperazin-1-yl)butanoate] | 75 | 75 | 25 | 0 |  |  |  | 
16 | COc1cc(/C=C/C(=O)N2CCN(C(=O)CCC(=O)N3CCN(c4nsc5ccccc45)CC3)CC2)cc(OC)c1OC [B10, (E)-1-(4-(benzo[d]isothiazol-3-yl)piperazin-1-yl)-4-(4-(3-(3,4,5-trimethoxyphenyl)acryloyl)piperazin-1-yl)butane-1,4-dione] | 75 | 75 | 25 | 0 |  |  |  | 
17 | COc1cc(/C=C/C(=O)N2CCN(C(=O)CCC(=O)N3CCN(c4cccc(Cl)c4)CC3)CC2)cc(OC)c1OC [B13, (E)-1-(4-(3-chlorophenyl)piperazin-1-yl)-4-(4-(3-(3,4,5-trimethoxyphenyl)acryloyl)piperazin-1-yl)butane-1,4-dione] | 50 | 25 | 0 | 0 |  |  |  | 
18 | COc1cc(/C=C/C(=O)N2CCN(CCCC(=O)N3CCN(c4cccc(Cl)c4)CC3)CC2)cc(OC)c1OC [A13, (E)-1-(4-(3-chlorophenyl)piperazin-1-yl)-4-(4-(3-(3,4,5-trimethoxyphenyl)acryloyl)piperazin-1-yl)butan-1-one] | 25 | 25 | 0 | 0 |  |  |  | 
19 | C=CCc1ccccc1OC(=O)CCCN1CCN(C(=O)/C=C/c2cc(OC)c(OC)c(OC)c2)CC1 [A4, 2-allylphenyl (E)-4-(4-(3-(3,4,5-trimethoxyphenyl)acryloyl)piperazin-1-yl)butanoate] | 50 | 50 | 25 | 0 |  |  |  | 
20 | COc1cc(/C=C/C(=O)N2CCN(C(=O)CCC(=O)O)CC2)cc(OC)c1OC [B1] | 25 | 25 | 0 | 0 |  |  |  | 
21 | COc1cc(/C=C/C(=O)N2CCN(CCCC(=O)OCC=Cc3ccccc3)CC2)cc(OC)c1OC [A6, cinnamyl 4-(4-((E)-3-(3,4,5-trimethoxyphenyl)acryloyl)piperazin-1-yl)butanoate] | 50 | 50 | 25 | 0 |  |  |  | 
22 | COc1cc(/C=C/C(=O)N2CCN(CCCC(=O)N3CCN(c4ncccn4)CC3)CC2)cc(OC)c1OC [A16, (E)-1-(4-(pyrimidin-2-yl)piperazin-1-yl)-4-(4-(3-(3,4,5-trimethoxyphenyl)acryloyl)piperazin-1-yl)butan-1-one] | 75 | 75 | 50 | 0 |  |  |  | 
23 | COc1cc(/C=C/C(=O)N2CCN(C(=O)CCC(=O)N3CCN(c4ccc(C(F)(F)F)cc4)CC3)CC2)cc(OC)c1OC [B14, (E)-1-(4-(4-(trifluoromethyl)phenyl)piperazin-1-yl)-4-(4-(3-(3,4,5-trimethoxyphenyl)acryloyl)piperazin-1-yl)butane-1,4-dione] | 75 | 75 | 50 | 0 |  |  |  | 
